From patent US9376436B2, “2-(pyridin-2yl)-1, 7-diaza-spiro [4.4] nonane-6-one compound as voltage-gated sodium channels modulators” (CONVERGENCE PHARMACEUTICALS LIMITED, priority 2011, dated 2016)
Where a name gives a salt, the structure may show the parent alone. Read-outs that look alike come from different tables or passages of the source.

Biological target: T1, hNaV1.7 (Homo sapiens, UniProt Q15858)
T1 construct: expressed in transfected cells; host or cells: HEK293
Assay: QPatch NaV1.7 assay (whole-cell patch clamp, QPatch16x)
Assay type: cell-based
Details: HEK293-hNaV1.7 cells
Procedure, shortened: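 HEK293 cells expressing hNaV1.7 recorded by automated whole-cell patch clamp (CsF internal, pH 7.3). Peak currents from 20 ms steps to 0 mV measured at holding potentials of −90 mV and V1/2 SSI; four-point cumulative concentrations, 120 s each, Hill fits gave pIC50 at each potential.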

[1] = holding voltage V1/2 SSI (half of channels inactivated), read-out: QP Nav1.7 SSI vhalf pIC50 (converted)
[2] = holding voltage −90 mV (most channels closed), read-out: QP Nav1.7 −90 mV pIC50 (converted)

T1 sequence (Q15858 whole entry): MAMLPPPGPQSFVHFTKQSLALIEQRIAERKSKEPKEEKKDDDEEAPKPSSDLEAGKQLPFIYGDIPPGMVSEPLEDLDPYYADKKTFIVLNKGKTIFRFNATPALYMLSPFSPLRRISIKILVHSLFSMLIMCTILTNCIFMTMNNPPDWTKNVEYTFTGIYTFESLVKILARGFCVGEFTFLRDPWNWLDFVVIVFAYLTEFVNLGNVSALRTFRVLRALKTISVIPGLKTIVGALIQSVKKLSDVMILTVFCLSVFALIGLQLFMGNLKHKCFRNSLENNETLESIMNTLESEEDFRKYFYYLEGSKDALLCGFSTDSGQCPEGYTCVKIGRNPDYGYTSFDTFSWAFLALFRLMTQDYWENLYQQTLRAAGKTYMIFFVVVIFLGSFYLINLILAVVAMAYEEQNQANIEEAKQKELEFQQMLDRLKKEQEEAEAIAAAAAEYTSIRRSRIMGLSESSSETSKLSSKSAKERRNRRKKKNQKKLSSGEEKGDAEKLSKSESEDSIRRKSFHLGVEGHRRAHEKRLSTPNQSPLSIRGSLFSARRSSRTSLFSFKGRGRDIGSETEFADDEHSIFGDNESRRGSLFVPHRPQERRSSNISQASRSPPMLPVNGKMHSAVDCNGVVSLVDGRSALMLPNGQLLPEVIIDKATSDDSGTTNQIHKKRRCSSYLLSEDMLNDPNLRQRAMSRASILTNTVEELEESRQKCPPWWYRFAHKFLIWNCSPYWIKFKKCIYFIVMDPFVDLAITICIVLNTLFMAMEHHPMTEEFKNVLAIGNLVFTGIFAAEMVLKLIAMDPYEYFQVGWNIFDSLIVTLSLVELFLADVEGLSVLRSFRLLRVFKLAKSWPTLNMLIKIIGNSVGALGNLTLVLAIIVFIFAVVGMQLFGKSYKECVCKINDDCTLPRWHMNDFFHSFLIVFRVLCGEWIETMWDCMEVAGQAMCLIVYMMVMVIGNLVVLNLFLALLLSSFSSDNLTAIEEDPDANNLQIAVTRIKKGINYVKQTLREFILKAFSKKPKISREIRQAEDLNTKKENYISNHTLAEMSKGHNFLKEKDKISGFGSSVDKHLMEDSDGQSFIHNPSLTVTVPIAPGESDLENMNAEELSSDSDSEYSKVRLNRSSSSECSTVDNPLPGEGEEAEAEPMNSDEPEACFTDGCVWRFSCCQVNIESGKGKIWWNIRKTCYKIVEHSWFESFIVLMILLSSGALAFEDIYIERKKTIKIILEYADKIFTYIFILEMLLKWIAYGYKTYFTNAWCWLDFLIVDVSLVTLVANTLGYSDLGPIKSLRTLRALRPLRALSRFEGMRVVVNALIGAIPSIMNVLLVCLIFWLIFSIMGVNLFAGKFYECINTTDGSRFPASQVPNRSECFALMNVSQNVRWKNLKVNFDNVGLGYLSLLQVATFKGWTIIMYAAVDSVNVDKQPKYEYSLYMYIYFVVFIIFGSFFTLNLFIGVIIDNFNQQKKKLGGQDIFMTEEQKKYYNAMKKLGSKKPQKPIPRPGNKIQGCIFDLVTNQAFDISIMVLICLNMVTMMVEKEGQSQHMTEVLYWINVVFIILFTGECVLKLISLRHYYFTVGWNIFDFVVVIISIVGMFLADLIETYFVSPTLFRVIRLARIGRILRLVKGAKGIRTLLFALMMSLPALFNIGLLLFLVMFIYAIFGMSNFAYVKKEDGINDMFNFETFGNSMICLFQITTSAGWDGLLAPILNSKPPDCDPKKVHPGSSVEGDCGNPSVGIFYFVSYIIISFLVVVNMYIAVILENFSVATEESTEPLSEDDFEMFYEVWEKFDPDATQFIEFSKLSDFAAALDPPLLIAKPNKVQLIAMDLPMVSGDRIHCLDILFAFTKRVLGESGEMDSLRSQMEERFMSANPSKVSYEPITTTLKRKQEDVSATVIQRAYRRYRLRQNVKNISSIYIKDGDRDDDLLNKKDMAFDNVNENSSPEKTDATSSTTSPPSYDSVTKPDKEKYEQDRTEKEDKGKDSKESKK

| IC50 [1] [µM] | IC50 [2] [µM] | Structure (SMILES) |
| --- | --- | --- |
| 100 | 158 | Cc1cc(-c2cc3c(cc2F)CCO3)cc([C@@H]2CC[C@]3(CCN(C)C3=O)N2)n1 [Example 208, (2S,5R)-2-[4-(5-Fluoro-2,3-dihydrobenzofuran-6-yl)-6-methyl-2-pyridyl]-7-methyl-1,7-diazaspiro[4.4]nonan-6-one hydrochloride] |
| 3.16 | 25.1 | Cc1cc(-c2ccc(OC(C)C)nc2)cc([C@@H]2CC[C@]3(CCN(C)C3=O)N2)n1 [Example 209, (2S,5R)-2-[4-(6-Isopropoxy-3-pyridyl)-6-methyl-2-pyridyl]-7-methyl-1,7-diazaspiro[4.4]nonan-6-one hydrochloride] |
| 398 |  | CCS(=O)(=O)c1ccc(-c2cc(C)nc([C@@H]3CC[C@]4(CCN(C)C4=O)N3)c2)cc1 [Example 210, (2S,5R)-2-[4-(4-Ethylsulfonylphenyl)-6-methyl-2-pyridyl]-7-methyl-1,7-diazaspiro[4.4]nonan-6-one hydrochloride] |
| 25.1 | 251 | Cc1cc(-c2cc(F)ccc2F)cc([C@H]2CC[C@@]3(CCN(C)C3=O)N2)n1 [Example 211, (2R,5S)-2-[4-(2,5-Difluorophenyl)-6-methyl-2-pyridyl]-7-methyl-1,7-diazaspiro[4.4]nonan-6-one hydrochloride] |
| 5.01 | 63.1 | CCOc1ccc(F)c(-c2ccnc([C@H]3CC[C@]4(CCN(C)C4=O)N3)c2C)c1 [Example 212, (2R,5R)-2-[4-(5-Ethoxy-2-fluoro-phenyl)-3-methyl-2-pyridyl]-7-methyl-1,7-diazaspiro[4.4]nonan-6-one hydrochloride] |
| 6.31 | 63.1 | CCOc1ccc(F)c(-c2ccnc([C@@H]3CC[C@]4(CCN(C)C4=O)N3)c2C)c1 [Example 213, (2S,5R)-2-[4-(5-Ethoxy-2-fluoro-phenyl)-3-methyl-2-pyridyl]-7-methyl-1,7-diazaspiro[4.4]nonan-6-one hydrochloride] |
| 3.98 | 31.6 | CCOc1ccc(F)c(-c2ccnc([C@@H]3CC[C@@]4(CCN(C)C4=O)N3)c2C)c1 [Example 214, (2S,5S)-2-[4-(5-Ethoxy-2-fluoro-phenyl)-3-methyl-2-pyridyl]-7-methyl-1,7-diazaspiro[4.4]nonan-6-one hydrochloride] |
| 12.6 | 126 | CCOc1ccc(F)c(-c2ccnc([C@H]3CC[C@@]4(CCN(C)C4=O)N3)c2C)c1 [Example 215, (2R,5S)-2-[4-(5-Ethoxy-2-fluoro-phenyl)-3-methyl-2-pyridyl]-7-methyl-1,7-diazaspiro[4.4]nonan-6-one hydrochloride] |
| 5.01 | 31.6 | CCOc1ccc(F)c(-c2ccnc([C@@H]3CC[C@@]4(CC(C)(C)NC4=O)N3)c2)c1 [Example 216, (2S,5S)-2-[4-(5-Ethoxy-2-fluoro-phenyl)-2-pyridyl]-8,8-dimethyl-1,7-diazaspiro[4.4]nonan-6-one hydrochloride] |
| 3.98 | 25.1 | CCOc1ccc(F)c(-c2ccnc([C@H]3CC[C@@]4(CC(C)(C)NC4=O)N3)c2)c1 [Example 217, (2R,5S)-2-[4-(5-Ethoxy-2-fluoro-phenyl)-2-pyridyl]-8,8-dimethyl-1,7-diazaspiro[4.4]nonan-6-one hydrochloride] |
| 0.501 | 6.31 | CCOc1ccc(F)c(-c2ccnc([C@H]3CC[C@]4(CC(C)(C)NC4=O)N3)c2)c1 [Example 218, (2R,5R)-2-[4-(5-Ethoxy-2-fluoro-phenyl)-2-pyridyl]-8,8-dimethyl-1,7-diazaspiro[4.4]nonan-6-one hydrochloride] |
| 7.94 | 50.1 | CCOc1ccc(F)c(-c2ccnc([C@@H]3CC[C@]4(CC(C)(C)NC4=O)N3)c2)c1 [Example 219, (2S,5R)-2-[4-(5-Ethoxy-2-fluoro-phenyl)-2-pyridyl]-8,8-dimethyl-1,7-diazaspiro[4.4]nonan-6-one hydrochloride] |
| 50.1 | 200 | CC1(C)C[C@]2(CC[C@H](c3cc(-c4cc(O)ccc4F)ccn3)N2)C(=O)N1 [Example 220, (2R,5R)-2-[4-(2-Fluoro-5-hydroxy-phenyl)-2-pyridyl]-8,8-dimethyl-1,7-diazaspiro[4.4]nonan-6-one] |
| 31.6 | 316 | CCOc1ccc(F)c(-c2cc([C@@H]3CC[C@]4(CCN(C)C4=O)N3)ncc2F)c1 [Example 221, (2S,5R)-2-[4-(5-Ethoxy-2-fluoro-phenyl)-5-fluoro-2-pyridyl]-7-methyl-1,7-diazaspiro[4.4]nonan-6-one hydrochloride] |
| 25.1 | 398 | CCOc1ccc(F)c(-c2cc([C@H]3CC[C@]4(CCN(C)C4=O)N3)ncc2F)c1 [Example 222, (2R,5R)-2-[4-(5-Ethoxy-2-fluoro-phenyl)-5-fluoro-2-pyridyl]-7-methyl-1,7-diazaspiro[4.4]nonan-6-one hydrochloride] |
| 25.1 | 158 | CCOc1ccc(F)c(-c2cc([C@H]3CC[C@@]4(CCN(C)C4=O)N3)ncc2F)c1 [Example 223, (2R,5S)-2-[4-(5-Ethoxy-2-fluoro-phenyl)-5-fluoro-2-pyridyl]-7-methyl-1,7-diazaspiro[4.4]nonan-6-one hydrochloride] |

| IC50 [1] [µM] | IC50 [2] [µM] | Structure (SMILES) |
| --- | --- | --- |
| 15.8 | 100 | CCOc1ccc(F)c(-c2cc([C@@H]3CC[C@@]4(CCN(C)C4=O)N3)ncc2F)c1 [Example 224, (2S,5S)-2-[4-(5-Ethoxy-2-fluoro-phenyl)-5-fluoro-2-pyridyl]-7-methyl-1,7-diazaspiro[4.4]nonan-6-one hydrochloride] |
| 25.1 | 251 | CN1CC[C@@]2(CC[C@H](c3cc(-c4ccc(C(F)(F)F)cc4)ccn3)N2C)C1=O [Example 225, (2R,5S)-1,7-Dimethyl-2-[4-[4-(trifluoromethyl)phenyl]-2-pyridyl]-1,7-diazaspiro[4.4]nonan-6-one hydrochloride] |
| 12.6 | 1580 | Cc1cc(-c2ccc(C(F)(F)F)cc2)cc([C@@H]2CC[C@@]3(CCNC3=O)N2C)n1 [Example 226, (2S,5S)-1-Methyl-2-[6-methyl-4-[4-(trifluoromethyl)phenyl]-2-pyridyl]-1,7-diazaspiro[4.4]nonan-6-one hydrochloride] |
| 12.6 | 158 | Cc1cc(-c2ccc(C(F)(F)F)cc2)cc([C@H]2CC[C@]3(CCNC3=O)N2C)n1 [Example 227, (2R,5R)-1-Methyl-2-[6-methyl-4-[4-(trifluoromethyl)phenyl]-2-pyridyl]-1,7-diazaspiro[4.4]nonan-6-one hydrochloride] |
| 3.16 | 20 | Cc1cc(-c2ccc(C(F)(F)F)cc2)cc([C@@H]2CC[C@]3(CCNC3=O)N2C)n1 [Example 228, (2S,5R)-1-Methyl-2-[6-methyl-4-[4-(trifluoromethyl)phenyl]-2-pyridyl]-1,7-diazaspiro[4.4]nonan-6-one hydrochloride] |
| 3.16 | 63.1 | Cc1cc(-c2ccc(C(F)(F)F)cc2)cc([C@H]2CC[C@@]3(CCNC3=O)N2C)n1 [Example 229, (2R,5S)-1-Methyl-2-[6-methyl-4-[4-(trifluoromethyl)phenyl]-2-pyridyl]-1,7-diazaspiro[4.4]nonan-6-one hydrochloride] |
| 1.26 | 25.1 | CN1[C@H](c2cc(-c3ccc(C(F)(F)F)cc3)ccn2)CC[C@]12CCCNC2=O [Example 230, hydrochloride] |
| 1 | 12.6 | CCOc1ccc(F)c(-c2cc(C)nc([C@@H]3CC[C@]4(CCN(C)C4=O)N3C)c2)c1 [Example 231, (2S,5R)-2-[4-(5-Ethoxy-2-fluoro-phenyl)-6-methyl-2-pyridyl]-1,7-dimethyl-1,7-diazaspiro-[4.4]nonan-6-one hydrochloride] |
| 1.26 | 7.94 | CN1[C@@H](c2cc(-c3ccc(C(F)(F)F)cc3)ccn2)CC[C@]12CCCNC2=O [Example 232, hydrochloride] |
| 12.6 | 31.6 | CCN1[C@H](c2cc(-c3ccc(C(F)(F)F)cc3)ccn2)CC[C@]12CCCNC2=O [Example 233, hydrochloride] |
| 0.0501 | 1 | CCOc1ccc(F)c(-c2cc(C(C)C)nc([C@H]3CC[C@]4(CCN(C)C4=O)N3)c2)c1 [Example 234, (2R,5R)-2-[4-(5-Ethoxy-2-fluoro-phenyl)-6-isopropyl-2-pyridyl]-7-methyl-1,7-diazaspiro[4.4]nonan-6-one hydrochloride] |
| 2 | 15.8 | CCOc1ccc(F)c(-c2cc(C(C)C)nc([C@@H]3CC[C@]4(CCN(C)C4=O)N3)c2)c1 [Example 235, (2S,5R)-2-[4-(5-Ethoxy-2-fluoro-phenyl)-6-isopropyl-2-pyridyl]-7-methyl-1,7-diazaspiro[4.4]nonan-6-one hydrochloride] |
| 0.631 | 6.31 | CCOc1ccc(F)c(-c2cc(C(C)C)nc([C@@H]3CC[C@@]4(CCN(C)C4=O)N3)c2)c1 [Example 236, (2S,5S)-2-[4-(5-Ethoxy-2-fluoro-phenyl)-6-isopropyl-2-pyridyl]-7-methyl-1,7-diazaspiro[4.4]nonan-6-one hydrochloride] |
| 0.316 | 2.51 | CCOc1ccc(F)c(-c2cc(C(C)C)nc([C@H]3CC[C@@]4(CCN(C)C4=O)N3)c2)c1 [Example 237, (2R,5S)-2-[4-(5-Ethoxy-2-fluoro-phenyl)-6-isopropyl-2-pyridyl]-7-methyl-1,7-diazaspiro[4.4]nonan-6-one hydrochloride] |
| 15.8 | 100 | CCOc1ccc(F)c(-c2cc([C@H]3CC[C@@]4(CCN(C)C4=O)N3)ncc2CC)c1 [Example 241, (2R,5S)-2-[4-(5-Ethoxy-2-fluoro-phenyl)-5-ethyl-2-pyridyl]-7-methyl-1,7-diazaspiro[4.4]nonan-6-one hydrochloride] |
